Experimental data published in US20060063782A1, “3-Hetero arylmethoxy ! pyridines and their analogues as p38 map kinase inhibitors” (priority 2002, published 2006).

Target: p38 MAP kinase (Homo sapiens, UniProt Q16539)
Test: p38 MAP Kinase Assay (33P incorporation into myelin basic protein, filter plate)
Assay type: biochemical
Settings: MKK6-activated p38, MBP substrate, 50 minutes
Description: The activated p38 is then diluted 1:6 with assay buffer, and 20 μl mixed with 25 μl of MBP mix (300 μl 10×strength assay buffer, 300 μl of 10 mM DTT & 10 mM sodium orthovanadate, 1.7 ml H2O, 50 μCi γ^33P-ATP, 200 μl of myelin basic protein (MBP) (5 mg/ml)) and added to 96 well plates along with 5 μl of various dilutions of the test compound in DMSO (up to 10%). The reaction is allowed to proceed for 50 minutes before being stopped with an excess of ortho-phosphoric acid (30 μl at 2%).
γ^33P-ATP which remains unincorporated into the myelin basic protein is separated from phosphorylated MBP on a Millipore MAPH filter plate. The wells of the MAPH plate are wetted with 0.5% orthophosphoric acid, and then the results of the reaction are filtered with a Millipore vacuum filtration unit through the wells. Following filtration, the residue is washed twice with 200 μl of 0.5% orthophosphoric acid. Once the filters have dried, 25 μl of Microscint 20 scintillant is added, and then counted on a Packard Topcount for 30 seconds.

Chain of p38 MAP kinase (Q16539 whole entry): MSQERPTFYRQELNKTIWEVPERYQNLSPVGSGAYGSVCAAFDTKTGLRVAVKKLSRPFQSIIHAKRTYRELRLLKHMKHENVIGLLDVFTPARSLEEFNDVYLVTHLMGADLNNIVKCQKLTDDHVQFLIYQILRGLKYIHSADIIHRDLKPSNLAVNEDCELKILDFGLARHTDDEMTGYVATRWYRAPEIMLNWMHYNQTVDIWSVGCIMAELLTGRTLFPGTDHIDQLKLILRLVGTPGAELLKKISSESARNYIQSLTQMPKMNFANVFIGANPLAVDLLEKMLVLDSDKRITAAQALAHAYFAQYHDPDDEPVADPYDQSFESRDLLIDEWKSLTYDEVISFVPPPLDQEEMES

SMILES	IC50 (Table 1) [µM]	IC50 (Table 2) [µM]
COc1ccccc1COc1cccnc1N [Compound 6, 2-amino-3-(2-methoxybenzyloxy)pyridine]	< 1000	
Nc1ncccc1OCc1cccc(Cl)c1 [Compound 9, 2-amino-3-(3-chlorobenzyloxy)pyridine]	< 1000	
Clc1ncccc1OCc1ccccc1 [Compound 10, 3-Benzyloxy-2-chloropyridine]	< 2000	
c1cncc(OCc2cccc3ccccc23)c1 [Compound 11, 3-(1-Naphthylmethyloxy)pyridine]	< 1000	
Nc1ncccc1OCc1ccc(F)cc1F [Compound 13, 2-amino-3-(2,4-difluorobenzyloxy)pyridine]	< 1000	
Nc1ncccc1OCc1ccc(F)c(F)c1 [Compound 14, 2-amino-3-(3,4-difluorobenzyloxy)pyridine]	< 1000	
Nc1ncccc1OCc1ccc(Cl)cc1Cl [Compound 15, 2-amino-3-(2,4-dichlorobenzyloxy)pyridine]	< 1000	
Nc1ncccc1OCc1cc2c(cc1Cl)OCO2 [Compound 18, 2-amino-3-(2-chloro-4,5-(methylenedioxy)benzyloxy)pyridine]	< 1000	
Nc1ncccc1OCc1c(F)cccc1Cl [Compound 22]	< 1000	
Nc1ncccc1OCc1cccc(OC(F)(F)F)c1 [Compound 24]	< 10000	
Nc1ncccc1OCc1ccccc1CS(=O)(=O)c1ccccc1 [Compound 25]	< 1000	
Nc1ncccc1OCc1cccc(Cl)c1F [Compound 27]	< 1000	
Cc1cccc(COc2cccnc2N)c1F [Compound 28]	< 1000	
Nc1ncccc1OCc1ccc(F)cc1Cl [Compound 31]	< 1000	
Nc1ncccc1OCc1c(F)cc(F)cc1F [Compound 32]	< 1000	
Nc1ncccc1OCc1cccc(C(=O)NCc2cccc3ccccc23)c1 [Compound 33]	< 1000	
Nc1ncccc1OCc1cccc(C(=O)NCC2CC2)c1 [Compound 34]	< 1000	
Nc1ncccc1OCn1nnc2ccccc21 [Compound 37]	< 1000	
Nc1ncccc1OCc1csc2ccccc12 [Compound 40]	< 1000	
Nc1ccc(Cl)c(COc2cccnc2)c1 [Compound 41]	< 1000	
CC(=O)Nc1ccc(Cl)c(COc2cccnc2)c1 [Compound 43]	< 1000	

SMILES	IC50 (Table 1) [µM]	IC50 (Table 2) [µM]
Nc1ccncc1OCc1cccc2ccccc12 [Compound 46]	< 1000	
Nc1ncccc1OCc1cccc2ccoc12 [Compound 47]	< 1000	
O=C(Nc1ccc(Cl)c(COc2cccnc2)c1)c1ccncc1 [Compound 53, N-[4-Chloro-3-(pyridin-3-yloxymethyl)-phenyl]-isonicotinamide]	< 200	
Clc1cccc(Cl)c1COc1ccc(N2CCOCC2)nc1 [Compound 54]	< 1000	
O=S(=O)(Nc1ccc(Cl)c(COc2cccnc2)c1)c1ccccc1 [Compound 55, N-(4-Chloro-3-(pyridin-3-yloxymethyl)-phenyl]-benzenesulfonamide]	< 200	
O=S(=O)(c1ccccc1)N(c1ccc(Cl)c(COc2cccnc2)c1)S(=O)(=O)c1ccccc1 [Compound 56, N-[4-Chloro-3-(pyridin-3-yloxymethyl)-phenyl]-bisbenzenesulfonamide]	< 1000	
c1cc(COc2cccnc2)cc(COc2cccnc2)c1 [Compound 58]	< 1000	
O=C(Nc1ccc(F)c(COc2cccnc2)c1)c1ccccc1 [Compound 59, N-[4-Fluoro-3-(pyridin-3-yloxymethyl)-phenyl]-benzamide]	< 200	
O=C(Nc1ccc(F)c(COc2cccnc2)c1)c1cccc(F)c1 [Compound 60, 3-Fluoro-N-[4-fluoro-3-(pyridin-3-yloxymethyl)-phenyl]-benzamide]	< 200	
O=C(Nc1cccc(COc2cccnc2)c1)c1ccccc1 [Compound 66, N-[3-(Pyridin-3-yloxymethyl)-phenyl]-benzamide]	< 200	
O=C1c2ccccc2C(=O)N1c1ccc(Cl)c(COc2cccnc2)c1 [Compound 68, 2-[4-Chloro-3-(pyridin-3-yloxymethyl)-phenyl]-isoindole-1,3-dione]	< 1000	
O=C1c2ccccc2C(O)N1c1ccc(Cl)c(COc2cccnc2)c1 (stereo not drawn) [Compound 73]	< 200	
O=C(Nc1ccc(Cl)c(COc2cccnc2)c1)Oc1ccccc1 [Compound 79, [4-Chloro-3-(pyridin-3-yloxymethyl)-phenyl]-carbamic acid phenyl ester]	< 20	
O=C1c2ccccc2CN1c1ccc(F)c(COc2cccnc2)c1 [Compound 80]	< 1000	
Nc1nccnc1OCc1cccc2ccccc12 [Compound 82]		< 1000
Nc1ncc(OCc2cccc3ccccc23)nc1Br [Compound 83]		< 1000
Nc1ncc(OCc2ccccc2)nc1Br [Compound 84]		< 1000
Nc1cccc(COc2cncc(Cl)n2)c1 [Compound 85]		< 1000
Nc1cnc(OCc2ccccc2)cn1 [Compound 86]		< 1000
Clc1cccc(Cl)c1COc1cnccn1 [Compound 87]		< 200
Clc1cnc(OCc2c(Cl)cccc2Cl)cn1 [Compound 88]		< 1000

Next, values leading:

IC50 (Table 1) [µM]	IC50 (Table 2) [µM]	SMILES
< 10		Nc1ncccc1OCc1ccccc1-c1ccccc1 [Compound 2]
< 200		Nc1ncccc1OCc1ccc(Cl)c(F)c1 [Compound 16, 2-amino-3-(4-chloro-3-fluorobenzyloxy)pyridine]
< 200		Cc1cc(C)cc(COc2cccnc2N)c1 [Compound 19]
< 200		Nc1ncccc1OCc1cccc(-c2ccccc2)c1 [Compound 20]
< 100		Nc1ncccc1OCc1ccccc1C(F)(F)F [Compound 23]
< 100		Cc1ccc2ccccc2c1COc1cccnc1N [Compound 30]
< 2		O=C(Nc1ccc(Cl)c(COc2cccnc2)c1)c1ccnc(N2CCOCC2)c1 [Compound 44, N-[4-Chloro-3-(pyridin-3-yloxymethyl)-phenyl]-2-morpholin-4-yl-isonicotinamide]
< 200		OCCNc1ccc(OCc2ccccc2)cn1 [Compound 45]
< 200		O=C(Nc1ccc(Cl)c(COc2cccnc2)c1)c1cccc(F)c1 [Compound 50, N-[4-Chloro-3-(pyridin-3-yloxymethyl)-phenyl]-3-fluoro-benzamide]
< 200		Clc1cccc(Cl)c1COc1ccc(NCc2ccccc2)nc1 [Compound 51]
< 20		O=C(Nc1ccc(Cl)c(COc2cccnc2)c1)c1ccccc1 [Compound 52, N-[4-Chloro-3-(pyridin-3-yloxymethyl)-phenyl]-benzamide]
< 20		Nc1ncccc1OCc1cc(NC(=O)c2ccccc2)ccc1Cl [Compound 57, N-[3-(2-Amino-pyridin-3-yloxymethyl)-4-chloro-phenyl]-benzamide]
< 20		O=C(Nc1ccccc1)Nc1ccc(Cl)c(COc2cccnc2)c1 [Compound 61, 1-[4-Chloro-3-(pyridin-3-yloxymethyl)-phenyl]-3-phenyl-urea]
< 2		O=C(Nc1ccc(F)c(COc2cccnc2)c1)c1cc(F)cc(N2CCOCC2)c1 [Compound 62, 3-Fluoro-N-[4-fluoro-3-(pyridin-3-yloxymethyl)-phenyl]-5-morpholin-4-yl-benzamide]
< 20		NC(=O)Nc1ccc(Cl)c(COc2cccnc2)c1 [Compound 63, [4-Chloro-3-(pyridin-3-yloxymethyl)-phenyl]-urea]
< 2		CC(C)(C)c1cc(NC(=O)Nc2ccc(Cl)c(COc3cccnc3)c2)n(-c2ccccc2)n1 [Compound 64, 1-(5-tert-Butyl-2-phenyl-2H-pyrazol-3-yl)-3-[4-chloro-3-(pyridin-3-yloxymethyl)-phenyl]-urea]
< 2		CC(C)(C)c1cccc(C(=O)Nc2ccc(Cl)c(COc3cccnc3)c2)c1 [Compound 65, 3-tert-Butyl-N-[4-chloro-3-(pyridin-3-yloxymethyl)-phenyl]-benzamide]
< 20		O=C(Nc1cccc(COc2cccnc2)c1)c1cc(F)cc(N2CCOCC2)c1 [Compound 67, 3-Fluoro-5-morpholin-4-yl-N-[3-(pyridin-3-yloxymethyl)-phenyl]-benzamide]
< 20		O=C(Nc1ccc(Cl)c(COc2cccnc2)c1)c1cccc(C(F)(F)F)c1 [Compound 69, N-[4-Chloro-3-(pyridin-3-yloxymethyl)-phenyl]-3-trifluoromethyl-benzamide]
< 20		O=C(Nc1ccc(Cl)c(COc2cccnc2)c1)c1cccc(Cl)c1 [Compound 70, 3-Chloro-N-[4-chloro-3-(pyridin-3-yloxymethyl)-phenyl]-benzamide]
< 20		O=C(Nc1ccc(F)c(COc2cccnc2)c1)c1cncc(N2CCOCC2)n1 [Compound 75, 6-Morpholin-4-yl-pyrazine-2-carboxylic acid [4-fluoro-3-(pyridin-3-yloxymethyl)-phenyl]-amide]
< 2		O=C(Nc1ccc(Cl)c(COc2ccc(NCc3ccccc3)nc2)c1)c1cc(F)cc(N2CCOCC2)c1 [Compound 77, N-[3-(6-Benzylamino-pyridin-3-yloxymethyl)-4-chloro-phenyl]-3-fluoro-5-morpholin-4-yl-benzamide]
< 20		CC(C)(C)c1ccccc1NC(=O)Nc1ccc(F)c(COc2cccnc2)c1 [Compound 78, 1-(2-tert-Butyl-phenyl)-3-[4-fluoro-3-(pyridin-3-yloxymethyl)-phenyl]-urea]
< 20		CC(C)c1nnc(NC(=O)Nc2ccc(F)c(COc3cccnc3)c2)s1 [Compound 81, 1-[4-Fluoro-3-(pyridin-3-yloxymethyl)-phenyl]-3-(5-isopropyl-[1,3,4]thiadiazol-2-yl)-urea]
